Measurements as given in PMC12645083, “Microwave‐Enhanced Synthesis of 2‐Styrylquinoline‐4‐Carboxamides With Promising Anti‐Lymphoma Activity” (Archiv Der Pharmazie, 2025).

Key:
SU-DHL-8 = test: In vitro antiproliferative activity, resazurin cell viability; format: cell-based; details: Homo sapiens, B lymphocyte, large cell lymphoma, 72 h of treatment, mean ± SEM
Procedure: (§1) To test the newly synthesized compounds, various human cell lines were employed. HD‐MB03 cells were purchased from DSMZ (Braunschweig, Germany), while A549, MDA‐MB‐231, RPMI‐8420, SU‐DHL‐8, TOLEDO, VL51, SU‐DHL‐1, SU‐DHL‐18, and KM‐H2 were obtained from ATCC (Manassas, VA, USA). Cells were cultured in DMEM (for MDA‐MB‐231 and A549) or RPMI‐1640 (for RPMI‐8420, SU‐DHL‐8, TOLEDO, VL51, SU‐DHL‐1, SU‐DHL‐18, KM‐H2, and HD‐MB03) media (Gibco, Milan, Italy). Both media were supplemented with 115 units/mL penicillin G (Gibco, Milan, Italy), 115 µg/mL streptomycin (Invitrogen, Milan, Italy), and 10% fetal bovine serum (Invitrogen, Milan, Italy). Peripheral blood mononuclear cells (PBMCs) were isolated from healthy donors as previously described. For cytotoxicity assays, PBMCs were resuspended at 5 × 10⁵ cells/mL in complete RPMI medium with or without 2.5 µg/mL phytohemagglutinin (PHA) (Irvine Scientific) to stimulate T‐cell activation and proliferation. All cell lines were maintained at 37°C in a humidified atmosphere containing 5% CO₂. All compounds were dissolved in DMSO at a 10 mM stock concentration. For dose–response assays, cells were seeded in 96‐well plates at densities optimized for each cell line: HD‐MB03 at 10,000 cells/well, A549 at 4000 cells/well, and MDA‐MB‐231 at 7000 cells/well. All other cell lines were seeded at 20,000 cells/well in a final volume of 100 µL per well. After 24 h, cells were treated with a 6‐point serial dilution of compounds starting from 10 µM, in triplicate for statistical analysis. Seventy‐2 h posttreatment, 10 µL of resazurin solution (100 µg/mL) was added to each well, and cells were incubated for an additional 3–6 h. Fluorescence was measured using a Spark 10 M microplate reader (Tecan Group Ltd., Männedorf, Switzerland) with excitation at 535 nm and emission at 600 nm. The IC₅₀ was defined as the concentration of compound required to inhibit cell proliferation by 50% compared to cells treated with the highest DMSO concentration.
(§2) To test the newly synthesized compounds, various human cell lines were employed. HD-MB03 cells were purchased from DSMZ (Braunschweig, Germany), while A549, MDA-MB-231, RPMI-8420, SU-DHL-8, TOLEDO, VL51, SU-DHL-1, SU-DHL-18, and KM-H2 were obtained from ATCC (Manassas, VA, USA). Cells were cultured in DMEM (for MDA-MB-231 and A549) or RPMI-1640 (for RPMI-8420, SU-DHL-8, TOLEDO, VL51, SU-DHL-1, SU-DHL-18, KM-H2, and HD-MB03) media (Gibco, Milan, Italy). Both media were supplemented with 115 units/mL penicillin G (Gibco, Milan, Italy), 115 µg/mL streptomycin (Invitrogen, Milan, Italy), and 10% fetal bovine serum (Invitrogen, Milan, Italy). Peripheral blood mononuclear cells (PBMCs) were isolated from healthy donors as previously described. ^[1] For cytotoxicity assays, PBMCs were resuspended at 5 × 10⁵ cells/mL in complete RPMI medium with or without 2.5 µg/mL phytohemagglutinin (PHA) (Irvine Scientific) to stimulate T cell activation and proliferation. All cell lines were maintained at 37 °C in a humidified atmosphere containing 5% CO₂. All compounds were dissolved in DMSO at a 10 mM stock concentration. For dose–response assays, cells were seeded in 96-well plates at densities optimized for each cell line: HD-MB03 at 10,000 cells/well, A549 at 4,000 cells/well, and MDA-MB-231 at 7,000 cells/well. All other cell lines were seeded at 20,000 cells/well in a final volume of 100 µL per well. After 24 hours, cells were treated with a 6-point serial dilution of compounds starting from 10 µM, in triplicate for statistical analysis. Seventy-two hours post-treatment, 10 µL of resazurin solution (100 µg/mL) was added to each well, and cells were incubated for an additional 3–6 hours. Fluorescence was measured using a Spark 10M microplate reader (Tecan Group Ltd., Männedorf, Switzerland) with excitation at 535 nm and emission at 600 nm. […]

A549 = test: as above; format: cell-based; details: Homo sapiens, non-small cell lung cancer, 72 h of treatment, mean ± SEM
Procedure: as §1, §2

RPMI-8402 = test: as above; format: cell-based; details: Homo sapiens, T-lymphoblastic leukemia cells, 72 h of treatment, mean ± SEM
Procedure: as §1, §2

HD-MB03 = test: as above; format: cell-based; details: Homo sapiens, medulloblastoma cells, 72 h of treatment, mean ± SEM, at least three experiments
Procedure: as §1, §2

MDA-MB-231 = test: as above; format: cell-based; details: Homo sapiens, triple-negative breast cancer, 72 h of treatment, mean ± SEM
Procedure: as §1, §2

SU-DHL-1 = test: Antiproliferative activity on lymphoma-derived cell lines, resazurin; format: cell-based; details: Homo sapiens, histiocytic large cell lymphoma, 72 h of treatment, mean ± SEM
Procedure: as §1, §2

TOLEDO [1] = test: as above; format: cell-based; details: Homo sapiens, diffuse large B-cell lymphoma, 72 h of treatment, mean ± SEM
Procedure: as §1, §2

SU-DHL-18 = test: as above; format: cell-based; details: Homo sapiens; lymph node lymphoma; 72 h of treatment; mean ± SEM
Procedure: as §1, §2

VL51 = test: as above; format: cell-based; details: Homo sapiens, splenic B-cell lymphoma, 72 h of treatment, mean ± SEM
Procedure: as §1, §2

KM-H2 = test: as above; format: cell-based; details: Homo sapiens, Hodgkin lymphoma, 72 h of treatment, mean ± SEM
Procedure: as §1, §2

TOLEDO [2] = test: Apoptosis assay, Annexin V/PI staining; format: cell-based, human; details: 2 µM, 48 h
Procedure: For apoptosis evaluation, cells were plated in 12‐well plates at 0.2 × 10⁶ cells/mL in 1 mL of complete medium. After 24 h, cells were treated with the indicated compound concentrations. After 48 h, cells were harvested, centrifuged, and stained with Annexin V‐FITC and propidium iodide (PI) using the Annexin‐V Fluos kit (Roche Diagnostics), following the manufacturer's instructions. Fluorescence was analyzed using a Coulter Cytomics FC500 flow cytometer (Beckman Coulter) with detection in the FL1 and FL3 channels, respectively.

TOLEDO [3] = test: Cell-cycle analysis (flow cytometry); format: cell-based, human; details: 2 µM, 48 h
Procedure: Cells were plated in 12‐well plates at 0.2 × 10⁶ cells/mL in 1 mL of complete medium. After 24 h, cells were treated with the specified compound concentrations. […] Cells were then stained and processed as previously described. Data acquisition was performed using a Coulter Cytomics FC500 flow cytometer (Beckman Coulter).

| SMILES | IC50 (SU-DHL-8) [µM] | IC50 (A549) [µM] | IC50 (RPMI-8402) [µM] | IC50 (HD-MB03) [µM] | IC50 (MDA-MB-231) [µM] | IC50 (SU-DHL-1) [µM] | IC50 (TOLEDO [1]) [µM] | IC50 (SU-DHL-18) [µM] | IC50 (VL51) [µM] | IC50 (KM-H2) [µM] | Mode of cell death (Annexin V/PI) (TOLEDO [2]) | Cell-cycle distribution (TOLEDO [3]) |
| --- | --- | --- | --- | --- | --- | --- | --- | --- | --- | --- | --- | --- |
| COc1cc(/C=C/c2cc(C(=O)Nc3ccc([N+](=O)[O-])cc3)c3ccccc3n2)cc(OC)c1OC [4s, (E)-N-(4-nitrophenyl)-2-(3,4,5-trimethoxystyryl)quinoline-4-carboxamide] | 1.37 ± 0.14 | > 10 | > 10 | > 10 | > 10 | > 10 | > 10 | > 10 | > 10 | > 10 |  |  |
| COc1cc(/C=C/c2cc(C(=O)Nc3c(C)cccc3C)c3ccccc3n2)cc(OC)c1OC [4n, (E)-N-(2,6-dimethylphenyl)-2-(3,4,5-trimethoxystyryl)quinoline-4-carboxamide] | 0.46 ± 0.05 | > 10 | 0.79 ± 0.07 | > 10 | > 10 | > 10 | > 10 | > 10 | > 10 | > 10 |  |  |
| O=C(Nc1ccc(Cl)cc1)c1cc(/C=C/c2ccccc2[N+](=O)[O-])nc2ccccc12 [4ah, (E)-N-(4-chlorophenyl)-2-(2-nitrostyryl)quinoline-4-carboxamide] | 2.15 ± 0.45 | 6.92 ± 0.68 | 1.33 ± 0.02 | > 10 | 4.99 ± 0.35 | 4.9 ± 0.31 | 4.93 ± 0.62 | 3.79 ± 0.51 | > 10 | 6.74 ± 2.12 |  |  |
| O=C(Nc1ccc([N+](=O)[O-])cc1)c1cc(/C=C/c2ccccc2)nc2ccccc12 [4i, (E)-N-(4-nitrophenyl)-2-styrylquinoline-4-carboxamide] | 1.64 ± 0.25 | > 10 | 1.14 ± 0.12 | > 10 | > 10 | 2.32 ± 1.46 | 1.05 ± 0.09 | 7.6 ± 2.8 | 1.03 ± 0.02 | 2.8 ± 0.21 | induced late apoptosis and necrosis | significant accumulation of cells in the G₂/M phase |
